# Source: PubChem BioAssay AID2060487 (Molecular Pharmacology Branch, DTP, NCI, 2025)
# Test system: 997537-175-T-J1-PDC complex spheroid viability
# Experiment: Anticancer human tumor 997537-175-T-J1-PDC patient-derived colon adenocarcinoma cell line growth inhibition [GQUAD]
# Conditions: for IC50: curve of first compound; for viability, T/C: stronger effect = lower value
# Text: DNA G-quadruplex Stabilizer Agents in Combinations in Complex Spheroids
# A high-throughput screen of multi-cell type tumor spheroids was designed to identify active combinations of DNA G-quadruplex stabilizer agents and targeted small molecules. Complex spheroids include a stromal component modeled by human endothelial cells (HUVEC) and fibroblasts modeled by human mesenchymal stem cells (MSCs). The concentration ranges selected for each drug and investigational agent were based upon clinically achievable concentrations if the clinical Cmax of the agent was known.
# Compounds. The drugs and investigational agents: pidnarulex (CX-5461; NSC782164), APTO-253 (NSC789042), BRACO-19 (NSC847499), peposertib (NSC802822), ceralasertib (NSC780249), elimusertib (NSC800525), camonsertib (NSC841442), AZD-1390 (NSC803789), olaparib (NSC753686), talazoparib (NSC767125), ART-558 (NSC835418), sotorasib (NSC818433), MRTX-1133 (NSC836407), SN-38 (NSC673596), topotecan (NSC609699), etoposide (NSC141540), doxorubicin (NSC123127), gemcitabine (NSC613327), 5-fluorouracil (NSC19893), paclitaxel (NSC125973), vemurafenib (NSC761431), panobinostat (NSC761190), R-306465 (JNJ-16241199; NSC773264), adavosertib (NSC754352), TP-3654 (NSC805149), carboplatin (NSC241240), KSQ-4279 (NSC840948), and staurosporine (NSC755774) were obtained from the National Cancer Institute (NCI) Developmental Therapeutics Program Chemical Repository (34). The FDA-approved anticancer drug set is available from the NCI Developmental Therapeutics Program. […] The stock solutions were prepared in dimethyl sulfoxide (DMSO, Sigma-Aldrich, St. Louis, MO, cat. D2650) at 800-fold the tested concentration and stored at -70 degrees C prior to their use. All drugs and investigational agents were tested over a range starting from a high concentration at or near the clinical Cmax and decreasing in half-log increments. If the clinical Cmax for an agent had not been determined, the highest concentration tested was 10 microM.
# 2.3 Cell Culture. All cells were maintained in an incubator at 37 degrees C and 5% CO2 with 95% humidity. The PDC lines were cultured according to standard operating procedures established by the NCI PDMR. All PDCs were thawed and cultured in Matrigel-coated flasks prepared with a working solution of 1X Ham's F-12 nutrient mix, without supplementation (Invitrogen, cat. 11765054), 100 U/mL penicillin-streptomycin (Invitrogen, cat. 15140122), and 2.5% Matrigel (Corning Inc., cat. 354248) for the first three passages. The 857933-349-R-J2-PDC line was cultured in 6C/Colon 1B media, which includes advanced DMEM/F-12 (Thermo Fisher Scientific, cat. 12634028), 10 mM HEPES (Thermo Fisher Scientific, cat. 15630080), 1X GlutaMAX supplement (Thermo Fisher Scientific, cat. 35050061), 0.1 mg/mL primocin (InvivoGen, cat. ant-pm-2), 10% defined fetal bovine serum, heat inactivated (HyClone Laboratories Inc., cat. SH30070.03HI), 50% L-WRN conditioned media (ATCC, cat. CRL-3276), 1.25 mM N-Acetyl-L-cysteine (Sigma-Aldrich, cat. A9165), 10 mM nicotinamide (Sigma-Aldrich, cat. N0636), 1X B-27 supplement (Thermo Fisher Scientific, cat. 17504044), 1X N-2 supplement (Thermo Fisher Scientific, cat. 17502048), 10 microM Y-27632 dihydrochloride (Tocris Bioscience, cat. 1254), and 50 ng/mL human EGF recombinant protein (Thermo Fisher Scientific, cat. PHG0311). The 485176-168-R4-J1-PDC line was cultured in Panc media, which includes all 6C/Colon 1B media components plus 100 ng/mL human FGF-10 (Thermo Fisher Scientific, cat. 100-26), 500 nM SB-431542 (Selleckchem, cat. S1067), and gastrin (Tocris, cat. 3006).
# […]
# [1] = second compound 0.0316 µM, first compound 0.0316 µM
# [2] = second compound 0.0316 µM, first compound 0.1 µM
# [3] = second compound 0.0316 µM, first compound 0.316 µM
# [4] = second compound 0.0316 µM, first compound 1 µM
# [5] = second compound 0.0316 µM, first compound 3.16 µM
# [6] = second compound 0.0316 µM, first compound 10 µM
# [7] = second compound 0.1 µM, first compound 0.0316 µM
# [8] = second compound 0.1 µM, first compound 0.1 µM
# [9] = second compound 0.1 µM, first compound 0.316 µM
# [10] = second compound 0.1 µM, first compound 1 µM
# [11] = second compound 0.1 µM, first compound 3.16 µM
# [12] = second compound 0.1 µM, first compound 10 µM
# [13] = second compound 0.316 µM, first compound 0.0316 µM
# [14] = second compound 0.316 µM, first compound 0.1 µM
# [15] = second compound 0.316 µM, first compound 0.316 µM
# [16] = second compound 0.316 µM, first compound 1 µM
# [17] = second compound 0.316 µM, first compound 3.16 µM
# [18] = second compound 0.316 µM, first compound 10 µM
# [19] = second compound 1 µM, first compound 0.0316 µM
# [20] = second compound 1 µM, first compound 0.1 µM
# [21] = second compound 1 µM, first compound 0.316 µM
# [22] = second compound 1 µM, first compound 1 µM
# [23] = second compound 1 µM, first compound 3.16 µM
# [24] = second compound 1 µM, first compound 10 µM
# [25] = second compound 3.16 µM, first compound 0.0316 µM
# [26] = second compound 3.16 µM, first compound 0.1 µM
# [27] = second compound 3.16 µM, first compound 0.316 µM
# [28] = second compound 3.16 µM, first compound 1 µM
# [29] = second compound 3.16 µM, first compound 3.16 µM
# [30] = second compound 3.16 µM, first compound 10 µM
# [31] = second compound 10 µM, first compound 0.0316 µM
# [32] = second compound 10 µM, first compound 0.1 µM
# [33] = second compound 10 µM, first compound 0.316 µM
# [34] = second compound 10 µM, first compound 1 µM
# [35] = second compound 10 µM, first compound 3.16 µM
# [36] = second compound 10 µM, first compound 10 µM
# 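Further: spheroids exposed to the agents for 7 days.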
# 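Wherever viability, T/C is given: 100% = DMSO vehicle control viability.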
smiles,measurement,setting,value
C#Cc1c(F)ccc2cc(O)cc(-c3ncc4c(N5CC6CCC(C5)N6)nc(OCC56CCCN5CC(F)C6)nc4c3F)c12 (centres undefined) + CN(C)c1ccc(Nc2c3ccc(NC(=O)CCN4CCCC4)cc3nc3cc(NC(=O)CCN4CCCC4)ccc23)cc1,IC50,second compound 0.0316 µM,> 10 µM
same,IC50,second compound 0.1 µM,> 10 µM
same,IC50,second compound 0.316 µM,> 10 µM
same,IC50,second compound 1 µM,> 10 µM
same,IC50,second compound 3.16 µM,> 10 µM
same,IC50,second compound 10 µM,> 10 µM
same,"viability, T/C",[1],102%
same,"viability, T/C",[2],97.8%
same,"viability, T/C",[3],98.9%
same,"viability, T/C",[4],91.1%
same,"viability, T/C",[5],87.1%
same,"viability, T/C",[6],107%
same,"viability, T/C",[7],97.7%
same,"viability, T/C",[8],89.4%
same,"viability, T/C",[9],92.6%
same,"viability, T/C",[10],65.7%
same,"viability, T/C",[11],110%
same,"viability, T/C",[12],106%
same,"viability, T/C",[13],97.2%
same,"viability, T/C",[14],104%
same,"viability, T/C",[15],103%
same,"viability, T/C",[16],83.4%
same,"viability, T/C",[17],103%
same,"viability, T/C",[18],105%
same,"viability, T/C",[19],89.5%
same,"viability, T/C",[20],93.3%
same,"viability, T/C",[21],92%
same,"viability, T/C",[22],82.9%
same,"viability, T/C",[23],101%
same,"viability, T/C",[24],108%
same,"viability, T/C",[25],69.6%
same,"viability, T/C",[26],97%
same,"viability, T/C",[27],103%
same,"viability, T/C",[28],106%
same,"viability, T/C",[29],106%
same,"viability, T/C",[30],124%
same,"viability, T/C",[31],86.8%
same,"viability, T/C",[32],101%
same,"viability, T/C",[33],106%
same,"viability, T/C",[34],106%
same,"viability, T/C",[35],114%
same,"viability, T/C",[36],113%
C=CCn1c(=O)c2cnc(Nc3ccc(N4CCN(C)CC4)cc3)nc2n1-c1cccc(C(C)(C)O)n1 + CN(C)c1ccc(Nc2c3ccc(NC(=O)CCN4CCCC4)cc3nc3cc(NC(=O)CCN4CCCC4)ccc23)cc1,IC50,second compound 0.0316 µM,2.1 µM
same,IC50,second compound 0.1 µM,2.16 µM
same,IC50,second compound 0.316 µM,6.68 µM
same,IC50,second compound 1 µM,2.86 µM
same,IC50,second compound 3.16 µM,2.42 µM
same,IC50,second compound 10 µM,5.06 µM
same,"viability, T/C",[1],104%
same,"viability, T/C",[2],93%
same,"viability, T/C",[3],91.8%
same,"viability, T/C",[4],74.4%
same,"viability, T/C",[5],35.5%
same,"viability, T/C",[6],31.7%
same,"viability, T/C",[7],95.8%
same,"viability, T/C",[8],85.2%
same,"viability, T/C",[9],89.1%
same,"viability, T/C",[10],67.5%
same,"viability, T/C",[11],41.2%
same,"viability, T/C",[12],25.6%
same,"viability, T/C",[13],101%
same,"viability, T/C",[14],73.8%
same,"viability, T/C",[15],86.5%
same,"viability, T/C",[16],71.9%
same,"viability, T/C",[17],84.2%
same,"viability, T/C",[18],31.8%
same,"viability, T/C",[19],83.1%
same,"viability, T/C",[20],72%
same,"viability, T/C",[21],82.1%
same,"viability, T/C",[22],75.8%
same,"viability, T/C",[23],47.5%
same,"viability, T/C",[24],26.4%
same,"viability, T/C",[25],74.3%
same,"viability, T/C",[26],85.9%
same,"viability, T/C",[27],88%
same,"viability, T/C",[28],68.5%
same,"viability, T/C",[29],45.1%
same,"viability, T/C",[30],33.3%
same,"viability, T/C",[31],66.1%
same,"viability, T/C",[32],92.8%
same,"viability, T/C",[33],111%
same,"viability, T/C",[34],74.2%
same,"viability, T/C",[35],58.5%
same,"viability, T/C",[36],39.9%
